The test system of one data set is 229E-GFP. Description: microbe, parasite or virus in culture. The settings on record: for EC90 / EC50: 72 h; for EC50: read-out: ECso; for infection by 229E-GFP: result in words, micromolar concentrations. In kind it is cell-based, human coronavirus.
Data set [1] deals with SARS-CoV-2. As to the kind of experiment: SARS-CoV-2 cell monolayer protection assay. The following applies: Severe acute respiratory syndrome coronavirus 2, Vero C1008, 72 h; for EC100: read-out: concentration protecting completely / around 100% of the cell monolayer. In kind it is cell-based, SARS-CoV-2 strain NL/2020.
The subject of data set [2] is SARS-CoV-2. In kind it is cell-based, SARS-CoV-2 strain NL/2020.
The test system of data set [3] is SARS-CoV-2. As to the kind of experiment: Intracellular viral RNA quantitation (RT-qPCR), with time of addition. The format is cell-based, SARS-CoV-2 strain NL/2020. In general terms: Quantitative PCR measures a nucleic acid by following its amplification.
For data set [4], the system named is retroviral vectors pseudotyped with SARS-CoV-2 Spike protein (SARS2pp). As to the kind of experiment: microbe, parasite or virus in culture. In kind it is cell-based. The following applies: Severe acute respiratory syndrome coronavirus 2, Vero C1008, 48 h.
The test system of another data set is Vero-E6 cells. The settings on record: uninfected Vero-E6 cells, 200 to 3.125 µM, crystal violet.
A short description of a further data set: in vitro. The settings on record: human, huh7-lunet#3 cells.

Usually EC90 stands for the point of the concentration-response curve where the effect stands at 90%. The term CC50 denotes the concentration giving 50% cytotoxicity. Read a high CC50 as lower toxicity to the cells.

With `CC[C@H]1OC(=O)[C@H](C)[C@@H](O[C@H]2C[C@@](C)(OC)[C@@H](O)[C@H](C)O2)[C@H](C)[C@@H](O[C@@H]2O[C@H](C)C[C@H](N(C)C)[C@H]2O)[C@](C)(O)C[C@@H](C)CN(C)[C@H](C)[C@@H](O)[C@]1(C)O` [Azithromycin], in the data set on 229E-GFP, it took 18.8 ± 2.5 µM to reach the 90% level (EC90), the EC50 was determined as 6.1 ± 2.4 µM and the “infection by 229E-GFP” value was “blocked viral infection”. In addition, in the data set on SARS-CoV-2 [1], the EC50 is 75 µM and the EC100 turned out to be 200 µM. In addition, the “progeny virus production (TCID50)” value in the data set on SARS-CoV-2 [2] was “undetectable levels”. Also, the “viral RNA accumulation” value in the data set with SARS-CoV-2 [3] is reported as “significantly reduced viral RNA accumulation in a dose dependent manner”. This molecule yielded an EC50 in data set [4] of about 30 µM. Besides, in the data set on Vero-E6 cells, the “cytotoxicity in Vero-E6 cells” value was “not toxic at any of the tested concentrations”. For the same molecule, the CC50 at 72 h in the data set “in vitro” was over 50 µM.

Take `CO/N=C(\C(=O)N[C@@H]1C(=O)N2C(C(=O)O)=C(COC(N)=O)CS[C@H]12)c1ccco1` [Cefuroxime]: in the data set with 229E-GFP, the EC90 is over 50 µM, the EC50 was over 50 µM and the “infection by 229E-GFP” value is recorded as “not significantly affected”. Besides, in the data set “in vitro”, the CC50 at 72 h was over 50 µM.

Take `CC[C@H]1OC(=O)[C@H](C)[C@@H](O[C@H]2C[C@@](C)(OC)[C@@H](O)[C@H](C)O2)[C@H](C)[C@@H](O[C@@H]2O[C@H](C)C[C@H](N(C)C)[C@H]2O)[C@](C)(OC)C[C@@H](C)C(=O)[C@H](C)[C@@H](O)[C@]1(C)O` [Clarithromycin]: in the data set on 229E-GFP, it took 46.3 ± 4.8 µM to reach the 90% level (EC90), the EC50 was determined as 17.3 ± 9.2 µM and the “infection by 229E-GFP” value was “blocked viral infection”. Moreover, in the data set on SARS-CoV-2 [1], the EC50 was 60 µM and the EC100 was determined as 100 µM. The “progeny virus production (TCID50)” value in the data set on SARS-CoV-2 [2] is listed as “undetectable levels”. Further, the “viral RNA accumulation” value in the data set with SARS-CoV-2 [3] is reported as “significantly reduced viral RNA accumulation in a dose dependent manner”. Moreover, the EC50 in data set [4] is about 30 µM. This molecule showed a 50% cytotoxic concentration (CC50) at 72 h in the data set “in vitro” of over 50 µM.

As for `CC[C@H]1OC(=O)[C@H](C)[C@@H](O[C@H]2C[C@@](C)(OC)[C@@H](O)[C@H](C)O2)[C@H](C)[C@@H](O[C@@H]2O[C@H](C)C[C@H](N(C)C)[C@H]2O)[C@](C)(O)C[C@@H](C)C(=O)[C@H](C)[C@@H](O)[C@]1(C)O` [Erithromycin, Erythromycin], in the data set with 229E-GFP, the EC90 was over 50 µM, the EC50 is over 50 µM and the “infection by 229E-GFP” value is recorded as “not significantly affected”. In “in vitro”, this molecule showed a CC50 at 72 h of over 50 µM.

With `CC[C@H]1OC(=O)[C@H](C)[C@@H](O[C@H]2C[C@@](C)(OC)[C@@H](O)[C@H](C)O2)[C@H](C)[C@@H](O[C@@H]2O[C@H](C)C[C@H](N(C)C)[C@H]2O)[C@](C)(O)C[C@@H](C)/C(=N\OC)[C@H](C)[C@@H](O)[C@]1(C)O` [Lexithromycin], in the data set with 229E-GFP, the EC90 amounted to 16.3 ± 6 µM, the EC50 was determined as 3 ± 1.4 µM and the “infection by 229E-GFP” value is recorded as “blocked viral infection”. In addition, in the data set with SARS-CoV-2 [1], the EC50 was determined as 25 µM and the EC100 was 50 µM. Further, in the data set on SARS-CoV-2 [2], the “progeny virus production (TCID50)” value was “undetectable levels”. In the data set with SARS-CoV-2 [3], the “viral RNA accumulation” value is “significantly reduced viral RNA accumulation in a dose dependent manner”. The molecule further registered an EC50 in data set [4] of about 18 µM. Further, the “cytotoxicity in Vero-E6 cells” value in the data set with Vero-E6 cells was “the most toxic compound”. Moreover, in “in vitro”, the 50% cytotoxic concentration (CC50) at 72 h was over 50 µM.
